Values of other authors, collected in patent US9579322B2, “Methods for treating neurologic disorders” (EIP Pharma, LLC, priority 2014, dated 2017).

Settings: animals; cited from earlier work

Structure (SMILES): NC(=O)c1ccc(N(C(N)=O)c2c(F)cccc2F)nc1-c1ccc(F)cc1F [VX-702]
- blood brain barrier penetration: non-blood-brain-barrier-penetrant
